# Reference: patent US7071218B2, “N-substituted heterocycles for the treatment of hypercholesteremia, dyslipidemia and other metabolic disorders; cancer, and other diseases” (Incyte San Diego Incorporated, priority 2001, dated 2006)
# How the values were obtained:
# [1] = test system: 3T3-L1 cells; experiment: 3T3-L1 adipocyte differentiation (lipid content), alone or with rosiglitazone (BRL49653); format: cell-based, mouse; conditions: 7 days of treatment; for lipid accumulation / differentiation of 3T3-L1 cells by the compound alone: 1e-10M to 1e-5M; for inhibition of adipocyte differentiation / lipid accumulation induced by rosiglitazone (BRL49653): in combination with rosiglitazone
# Text: The mouse preadipocyte cell line 3T3-L1 has been extensively used to study adipocyte differentiation. Upon stimulation with differentiating agents, preadipocytes typically undergo one cell cycle expansion and then they are growth arrested and dramatically change their shape to become more rounded cells, loaded with lipids, in a fashion closely reflecting adipogenesis in vivo. In this well-known process of differentiation, peroxisome proliferator activated receptor gamma (PPARγ) and retinoid X receptor (RXR) play a key role. PPARγ binds as an obligatory heterodimer with RXR to specific responsive sequences in the promoter region of target genes. In the particular case of PPARγ/RXR heterodimers, both receptors can be activated via their specific ligands. As a consequence of such activation, adipocyte-specific genes are turned on (C/EBP, aP2, LPL, adipsin, etc) and adipocyte differentiation results. Because lipid accumulation is the endpoint of adipocyte differentiation, the quantification of lipids which have accumulated in cells upon treatment with the compound(s) of interest, will indicate the ability of that compound to trigger adipocyte differentiation. More importantly, the potency of that compound can be estimated as well based on the total amount of lipids accumulated. The amount of lipid measured at the end of the assay for each tested compound is here compared to that of Compound 73 at 0.1 μM, which is considered 100% (see FIG. 11A).
# In the particular case of measuring the potential antagonistic activity of some compounds, the putative antagonist is combined together with an agonist (such as the PPARγ agonist BRL49653). Thus, the amount of lipids accumulated in response to BRL49653 (considered as 100% in this case), is decreased by the compound with antagonistic activity (see FIG. 11B).
# Materials and Methods: Mouse embryo fibroblast 3T3-L1 cell line, from American Type Culture Collection (ATCC), was used as a model of adipocyte differentiation.
# Growing medium (GM): DME Dulbecco's modified Eagle's medium containing 4500 mg/L glucose; 4 mM L-glutamine; 10 U/ml Pen-G; 10 mcg/ml and 10% Calf Serum (CS).
# Differentiation medium (DM): DME Dulbecco's modified Eagle's medium containing 4500 mg/L glucose; 4 mM L-glutamine; 10 U/ml Pen-G; 10 mcg/ml and 10% Fetal Calf Serum (FCS). Cells are always kept at 10% CO2.
# Cells were seeded at 3,000 cells/well in 96 well-tissue culture plates in growing medium.
# Two days after reaching confluence, cells were treated with the different compounds of interest in DM (Day 0). Drugs were replaced every 2–3 days in DM. Differentiation was assessed after 7 days of treatment, by measuring the lipid content in the cells, using the Triglyceride (INFINITY) reagent (Quantitative assay). • Controls: All cells, including control cells (vehicle), are treated with the same volume of dimethyl sulfoxide (DMSO) never exceeding 0.1% final solvent concentration. As a positive control for differentiation, cells were treated with 10 μg insulin per ml and 2.5 μM dexamethasone (Ins/Dex).
# [2] = molecular target: T1, AKT1/PKBα (Homo sapiens, UniProt P31749); experiment: In vitro assay for AKT1/PKBα kinase activity inhibition; format: biochemical; conditions: at 5 μM, pre-incubation 10 minute at 30° C.
# T1 construct: purchased Upstate 14-276
# T1 sequence (P31749 whole entry): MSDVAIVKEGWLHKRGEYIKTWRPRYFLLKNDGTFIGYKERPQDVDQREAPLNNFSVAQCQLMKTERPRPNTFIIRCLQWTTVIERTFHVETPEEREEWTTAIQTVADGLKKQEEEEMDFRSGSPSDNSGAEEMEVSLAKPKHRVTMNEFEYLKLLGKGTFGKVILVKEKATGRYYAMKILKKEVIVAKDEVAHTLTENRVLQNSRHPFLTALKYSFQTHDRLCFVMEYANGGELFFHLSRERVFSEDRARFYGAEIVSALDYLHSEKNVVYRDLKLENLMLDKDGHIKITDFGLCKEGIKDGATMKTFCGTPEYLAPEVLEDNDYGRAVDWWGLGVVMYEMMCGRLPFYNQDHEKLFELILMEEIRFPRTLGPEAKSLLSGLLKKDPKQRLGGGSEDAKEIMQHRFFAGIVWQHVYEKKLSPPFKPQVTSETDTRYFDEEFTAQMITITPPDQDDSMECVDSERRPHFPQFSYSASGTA
# Protocol: The assay was performed using a similar approach as described by Standaert, Mary L., et al. J. Biol. Chem. 1999, 274, 25308–25316; and Aman, M. J. et al, J. Biol. Chem. 1998, 273, 33922–33928. The assay was performed using purified recombinant His-tagged AKT1/PKBα enzyme purchased from Upstate catalog # 14-276 following the manufacturer instruction. The assay is to measure phosphotransferase activity in purified His-tagged AKT1/PKBα. The purified enzyme is used to transfer the γ phosphate of [γ-32P]-ATP to a specific substrate, AKT/GSK peptide [RPRAATA] (upstate Catalog # 12-340). The phosphorylated substrate is then separated from the residual [γ-32P]ATP by using P81 phosphocellulose paper accompanied with extensive washing followed by quantitation using scintillation counter. The assay is linear for incubation times for up to 30 minutes and incorporation of up to 20% of total ATP. This enzyme assay is rapid, convenient and specific for AKT/PKB.
# For testing the effect of Compound 2 on the AKT kinase activity, 0.3 μg AKT was pre-incubated with 1 μl of different Compound 2 stock concentration to give the final indicated concentration in total volume of 20 μl reaction buffer. As control 0.3 μg AKT was incubated with 1 μl Vehicle or alone in total volume of 20 μl reaction buffer. After a 10 minute incubation at 30° C., the kinase reaction was carried out according to the instruction of the manufacturer.
# [3] = test system: LXR; experiment: In vitro transactivation assay in CV-1 cells, antagonism of T0901317-induced Gal-LXR activation; format: cell-based; conditions: with 1 μM agonist T0901317
# Text: (§1) In vitro screens such as the transactivation assay can be used to measure the ability of a compound to inhibit a nuclear receptor regulating lipid or carbohydrate uptake, synthesis or metabolism. In the assay described herein compounds can be identified that can inhibit activation of the following nuclear receptors: LXR, PPARα, PPARγ and FXR. This activity can be useful to treat lipid disorders such as hypercholesteremia and obesity.
# (§2) Cell line: Kidney Green Monkey CV-1 cells.
# (§3) Growing culturing medium: Dulbecco's modified Eagle's medium (DMEM) supplememnted with 10% fetal calf serum (FCS).
# (§4) Procedure: CV-1 cells were plated in 48 well-plate culture plates, at a density of 10,000 cells/well, 24 h prior to transfection. One to three hours before transfection, cells were fed with fresh medium. A modified calcium phosphate precipitation procedure was used for transient transfection (Pfahl, M. et al., 1990, Methods in Enzymology 189: 256).
# (§5) Typically, 40 ng reporter plasmid and 20 ng of each receptor expression vector were mixed, together with 10 ng of β-galactosidase control plasmid (pCH110, Pharmacia, Piscataway, N.J.) and Bluescript plasmid to obtain a total of 400 ng DNA per well. To this mixture 1 μl of 2.5M CaCl2 and 10 μl of BBS buffer, pH 6.95, were added afterward. […]
# [4] = molecular target: T2, PPARγ (Homo sapiens, UniProt P37231); experiment: In vitro transactivation assay in CV-1 cells, antagonism of BRL49653-induced Gal-PPARγ activation; format: cell-based; conditions: with 1 μM agonist BRL49653, dose-dependent
# T2 construct: expressed in transfected cells; host or cells: CV-1 (green monkey kidney) cells, transient calcium phosphate transfection
# T2 sequence (P37231 238-503 limits assumed): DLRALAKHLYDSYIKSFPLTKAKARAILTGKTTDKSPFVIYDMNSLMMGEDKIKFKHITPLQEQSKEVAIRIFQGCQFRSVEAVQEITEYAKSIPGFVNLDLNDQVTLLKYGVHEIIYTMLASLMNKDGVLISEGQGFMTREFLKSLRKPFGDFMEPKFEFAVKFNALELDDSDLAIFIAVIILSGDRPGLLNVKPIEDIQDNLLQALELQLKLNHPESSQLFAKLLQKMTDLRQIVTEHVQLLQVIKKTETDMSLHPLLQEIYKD
# Text: as §1, §2, §3, §4, §5
inhibition of AKT activity compared to Control or Vehicle [2],SMILES,lipid accumulation / differentiation of 3T3-L1 cells by the compound alone [1],inhibition of adipocyte differentiation / lipid accumulation induced by rosiglitazone (BRL49653) [1],other results
showed inhibition,"Cc1cc2c(cc1-c1cc(/C=C3\SC(=S)N(CC(=O)O)C3=O)ccc1OC(F)(F)F)C(C)(C)CCC2(C)C [Compound 2, {5-[4-Trifluoromethoxy-3-(3,5,5,8,8-pentamethyl-5,6,7,8-tetrahydronaphthalen-2-yl)-benzylidene]-4-oxo-2-thioxo-thiazolidin-3-yl}-acetic acid]",lacked that ability,potently inhibited,
showed inhibition,"COc1ncc(/C=C2\SC(=S)N(CC(=O)O)C2=O)cc1-c1cc2c(cc1C)C(C)(C)CCC2(C)C [Compound 3, {5-[6-Methoxy-5-(3,5,5,8,8-pentamethyl-5,6,7,8-tetrahydro-naphthalen-2-yl)-pyridin-3-ylmethylene]-4-oxo-2-thioxo-thiazolidin-3-yl}-acetic acid]",,,
showed inhibition,"CN(C)c1ccc(/C=C2\SC(=S)N(CC(=O)O)C2=O)cc1-c1cc2c(cc1N(C)C)C(C)(C)CCC2(C)C [Compound 10, {5-[4-Dimethylamino-3-(3-dimethylamino-5,5,8,8-tetramethyl-5,6,7,8-tetrahydro-naphthalen-2-yl)-benzylidene]-4-oxo-2-thioxo-thiazolidin-3-yl}-acetic acid]",,,

# The remaining lines, values behind:
SMILES,inhibition of AKT activity compared to Control or Vehicle [2],lipid accumulation / differentiation of 3T3-L1 cells by the compound alone [1],inhibition of adipocyte differentiation / lipid accumulation induced by rosiglitazone (BRL49653) [1],other results
"COc1ccc(/C=C2\SC(=O)N(CCc3ccccn3)C2=O)cc1-c1cc2c(cc1C)C(C)(C)CCC2(C)C [Compound 6, 5-[4-Methoxy-3-(3,5,5,8,8-pentamethyl-5,6,7,8-tetrahydro-naphthalen-2-yl)-benzylidene]-3-(2-pyridin-2-yl-ethyl)-thiazolidine-2,4-dione]",,,,melting point: 170 to 171 °C
"COc1ccc(/C=C2\SC(=S)N(CC(=O)O)C2=O)cc1-c1cc2c(cc1C)C(C)(C)CCC2(C)C [Compound 1, {5-[4-Methoxy-3-(3,5,5,8,8-pentamethyl-5,6,7,8-tetrahydro-naphthalen-2-yl)-benzylidene]-4-oxo-2-thioxo-thiazolidin-3-yl}-acetic acid]",,lacked that ability,potently inhibited,
"COc1cc2c(cc1-c1c(/C=C3\SC(=S)N(CC(=O)O)C3=O)cc(-c3ccccc3)cc1OC)C(C)(C)CCC2(C)C [Compound 72, reference compound]",,induced lipid accumulation,,
CCOc1ccc(-c2ccc(OC)c(C(C)(C)C)c2)cc1/C=C1\SC(=S)N(CC(=O)O)C1=O [Compound 67],showed inhibition,,,
"COc1ccc(/C=C2\SC(=S)NC2=O)cc1-c1cc2c(cc1C)C(C)(C)CCC2(C)C [Compound 71, reference compound]",,induced lipid accumulation,,
"COc1cc2c(cc1-c1c(/C=C3\SC(=S)N(CC(=O)O)C3=O)cc(-c3ccccc3)cc1OC)C(C)(C)CCC2(C)C [Compound 8, {5-[5-Phenyl-3-methoxy-2-(3-methoxy-5,5,8,8-tetramethyl-5,6,7,8-tetrahydro-naphthalen-2-yl)-benzylidene]-4-oxo-2-thioxo-thiazolidin-3-yl}-acetic acid]",,lacked the ability to differentiate 3T3-L1 cells by themselves,strongly inhibited,antagonism of T0901317-induced LXR activation (in words) [3]: only antagonize the activation activity of BRL49653 for PPARγ; inhibition at 10 µM [4]: 80 to 90%
